{"source": "patent US7138361B2", "about": "“Herbicidal heterocycles” (E. I. du Pont de Nemours and Company, priority 2000, dated 2006)", "experiment_in_all_cases": "Test C preemergence", "format_in_all_cases": "in vivo", "key": {"[1]": {"tested_on": "crabgrass (Digitaria sanguinalis)", "summary_of_the_method": "(§1)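 Preemergence: seeds sown then treated. Postemergence: plants 2–18 cm, 1- to 4-leaf. Both with surfactant-containing solvent formulation; visual injury scored 0–100 after 12–14 d.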"}, "[2]": {"tested_on": "giant foxtail (Setaria faberii)", "summary_of_the_method": "as §1"}, "[3]": {"tested_on": "yellow nutsedge (Cyperus esculentus)", "summary_of_the_method": "as §1"}, "[4]": {"tested_on": "Sunflower", "conditions": "Rate 125 g/ha; scale 0 to 100, 0 no effect, 100 complete control"}, "[5]": {"tested_on": "Nightshade"}, "[6]": {"tested_on": "lambsquarters (Chenopodium album)", "summary_of_the_method": "as §1"}, "[7]": {"tested_on": "morningglory (Ipomoea hederacea)", "summary_of_the_method": "as §1"}, "[8]": {"tested_on": "soybean (Glycine max)", "summary_of_the_method": "as §1"}, "[9]": {"tested_on": "pigweed (Amaranthus retroflexus)", "summary_of_the_method": "as §1"}, "[10]": {"tested_on": "johnsongrass (Sorghum halepense)", "summary_of_the_method": "as §1"}, "[11]": {"tested_on": "kochia (Kochia scoparia)", "summary_of_the_method": "as §1"}, "[12]": {"tested_on": "Surinam grass (Brachiaria decumbens)", "summary_of_the_method": "as §1"}, "[13]": {"tested_on": "corn (Zea mays)", "summary_of_the_method": "as §1"}, "[14]": {"tested_on": "common ragweed (Ambrosia elatior)", "summary_of_the_method": "as §1"}, "[15]": {"tested_on": "goosegrass (Eleusine indica)", "summary_of_the_method": "as §1"}, "[16]": {"tested_on": "velvetleaf (Abutilon theophrasti)", "summary_of_the_method": "as §1"}, "[17]": {"tested_on": "woolly cupgrass (Eriochloa villosa)", "summary_of_the_method": "as §1"}, "[18]": {"tested_on": "bermudagrass (Cynodon dactylon)", "summary_of_the_method": "as §1"}, "[19]": {"tested_on": "cocklebur (Xanthium strumarium)", "summary_of_the_method": "as §1"}, "[20]": {"tested_on": "Sunflower", "conditions": "Rate 250 g/ha, scale 0 to 100, 0 no effect, 100 complete control"}, "[21]": {"conditions": "Rate 125 g/ha, scale 0 to 100, 0 no effect, 100 complete control"}, "[22]": {"conditions": "preemergence, Rate 62 g/ha, scale 0 to 100"}, "[23]": {"conditions": "preemergence, Rate 500 g/ha, visual evaluation after 12 to 14 days"}, "[24]": {"conditions": "preemergence, Rate 250 g/ha, scale 0 to 100, 0 no effect, 100 complete control"}}}
{"compound": "CCC(C)Oc1cccc(N2CCC(n3ccc(C(C)(C)C)n3)C2=O)c1", "note": "(stereo not shown) [Compound 127]", "values": [{"measurement": "Plant response rating, Crabgrass", "setting": "[1]; [21]", "result": 70}, {"measurement": "Plant response rating, Crabgrass", "setting": "[1]; [22]", "result": 50}, {"measurement": "Plant response rating (0 to 100), Crabgrass", "setting": "[1]; [23]", "result": 100}, {"measurement": "Plant response rating, Crabgrass", "setting": "[1]; [24]", "result": 100}, {"measurement": "Plant response rating, Foxtail, Giant", "setting": "[2]; [21]", "result": 0}, {"measurement": "Plant response rating, Foxtail, Giant", "setting": "[2]; [22]", "result": 0}, {"measurement": "Plant response rating (0 to 100), Foxtail, Giant", "setting": "[2]; [23]", "result": 100}, {"measurement": "Plant response rating, Foxtail, Giant", "setting": "[2]; [24]", "result": 100}, {"measurement": "Plant response rating, Nutsedge", "setting": "[3]; [21]", "result": 0}, {"measurement": "Plant response rating, Nutsedge", "setting": "[3]; [22]", "result": 0}, {"measurement": "Plant response rating (0 to 100), Nutsedge", "setting": "[3]; [23]", "result": 0}, {"measurement": "Plant response rating, Nutsedge", "setting": "[3]; [24]", "result": 0}, {"measurement": "Plant response rating, Sunflower", "setting": "[4]", "result": 0}, {"measurement": "Plant response rating, Nightshade", "setting": "[5]; Rate 62 g/ha, scale 0 to 100", "result": 0}, {"measurement": "Plant response rating, Nightshade", "setting": "[5]; [21]", "result": 0}, {"measurement": "Plant response rating, Nightshade", "setting": "[5]; Rate 250 g/ha, scale 0 to 100, 0 no effect, 100 complete control", "result": 0}, {"measurement": "Plant response rating, Lambsquarters", "setting": "[6]; [21]", "result": 80}, {"measurement": "Plant response rating, Lambsquarters", "setting": "[6]; [22]", "result": 20}, {"measurement": "Plant response rating (0 to 100), Lambsquarters", "setting": "[6]; [23]", "result": 100}, {"measurement": "Plant response rating, Lambsquarters", "setting": "[6]; [24]", "result": 100}, {"measurement": "Plant response rating, Morningglory", "setting": "[7]; [21]", "result": 0}, {"measurement": "Plant response rating, Morningglory", "setting": "[7]; [22]", "result": 0}, {"measurement": "Plant response rating (0 to 100), Morningglory", "setting": "[7]; [23]", "result": 20}, {"measurement": "Plant response rating, Morningglory", "setting": "[7]; [24]", "result": 0}, {"measurement": "Plant response rating, Soybean", "setting": "[8]; [21]", "result": 0}, {"measurement": "Plant response rating, Soybean", "setting": "[8]; [22]", "result": 0}, {"measurement": "Plant response rating (0 to 100), Soybean", "setting": "[8]; [23]", "result": 0}, {"measurement": "Plant response rating, Soybean", "setting": "[8]; [24]", "result": 0}, {"measurement": "Plant response rating, Pigweed", "setting": "[9]; [21]", "result": 0}, {"measurement": "Plant response rating, Pigweed", "setting": "[9]; [22]", "result": 0}, {"measurement": "Plant response rating (0 to 100), Pigweed", "setting": "[9]; [23]", "result": 0}, {"measurement": "Plant response rating, Pigweed", "setting": "[9]; [24]", "result": 0}, {"measurement": "Plant response rating, Johnsongrass", "setting": "[10]; [21]", "result": 0}, {"measurement": "Plant response rating, Johnsongrass", "setting": "[10]; [22]", "result": 0}, {"measurement": "Plant response rating (0 to 100), Johnsongrass", "setting": "[10]; [23]", "result": 0}, {"measurement": "Plant response rating, Johnsongrass", "setting": "[10]; [24]", "result": 0}, {"measurement": "Plant response rating, Kochia", "setting": "[11]; [21]", "result": 0}, {"measurement": "Plant response rating, Kochia", "setting": "[11]; [22]", "result": 0}, {"measurement": "Plant response rating (0 to 100), Kochia", "setting": "[11]; [23]", "result": 0}, {"measurement": "Plant response rating, Kochia", "setting": "[11]; [24]", "result": 0}, {"measurement": "Plant response rating, Surinam grass", "setting": "[12]; [21]", "result": 0}, {"measurement": "Plant response rating, Surinam grass", "setting": "[12]; [22]", "result": 0}, {"measurement": "Plant response rating (0 to 100), Surinam grass", "setting": "[12]; [23]", "result": 100}, {"measurement": "Plant response rating, Surinam grass", "setting": "[12]; [24]", "result": 20}, {"measurement": "Plant response rating, Corn", "setting": "[13]; [21]", "result": 0}, {"measurement": "Plant response rating, Corn", "setting": "[13]; [22]", "result": 0}, {"measurement": "Plant response rating (0 to 100), Corn", "setting": "[13]; [23]", "result": 30}, {"measurement": "Plant response rating, Corn", "setting": "[13]; [24]", "result": 30}, {"measurement": "Plant response rating, Ragweed, Common", "setting": "[14]; [21]", "result": 0}, {"measurement": "Plant response rating, Ragweed, Common", "setting": "[14]; [22]", "result": 0}, {"measurement": "Plant response rating (0 to 100), Ragweed, Common", "setting": "[14]; [23]", "result": 10}, {"measurement": "Plant response rating, Ragweed, Common", "setting": "[14]; [24]", "result": 10}, {"measurement": "Plant response rating, Goosegrass", "setting": "[15]; [21]", "result": 30}, {"measurement": "Plant response rating, Goosegrass", "setting": "[15]; [22]", "result": 10}, {"measurement": "Plant response rating (0 to 100), Goosegrass", "setting": "[15]; [23]", "result": 100}, {"measurement": "Plant response rating, Goosegrass", "setting": "[15]; [24]", "result": 100}, {"measurement": "Plant response rating, Velvetleaf", "setting": "[16]; [21]", "result": 0}, {"measurement": "Plant response rating, Velvetleaf", "setting": "[16]; [22]", "result": 0}, {"measurement": "Plant response rating (0 to 100), Velvetleaf", "setting": "[16]; [23]", "result": 30}, {"measurement": "Plant response rating, Velvetleaf", "setting": "[16]; [24]", "result": 10}, {"measurement": "Plant response rating, Cupgrass, Woolly", "setting": "[17]; [21]", "result": 50}, {"measurement": "Plant response rating, Cupgrass, Woolly", "setting": "[17]; [22]", "result": 0}, {"measurement": "Plant response rating (0 to 100), Cupgrass, Woolly", "setting": "[17]; [23]", "result": 100}, {"measurement": "Plant response rating, Cupgrass, Woolly", "setting": "[17]; [24]", "result": 90}, {"measurement": "Plant response rating, Bermudagrass", "setting": "[18]; [21]", "result": 100}, {"measurement": "Plant response rating, Bermudagrass", "setting": "[18]; [22]", "result": 90}, {"measurement": "Plant response rating (0 to 100 where 0 is no effect and 100 is complete control), Bermudagrass", "setting": "[18]; [23]", "result": 100}, {"measurement": "Plant response rating, Bermudagrass", "setting": "[18]; [24]", "result": 100}, {"measurement": "Plant response rating, Cocklebur", "setting": "[19]; [21]", "result": 0}, {"measurement": "Plant response rating, Cocklebur", "setting": "[19]; [22]", "result": 0}, {"measurement": "Plant response rating (0 to 100), Cocklebur", "setting": "[19]; [23]", "result": 20}, {"measurement": "Plant response rating, Cocklebur", "setting": "[19]; [24]", "result": 0}, {"measurement": "Plant response rating, Sunflower", "setting": "[20]", "result": 0}]}
